Test results from PubChem BioAssay AID248 (DTP/NCI, 2004).
Values joined by “and” are separate entries in the source; they are usually repeats but may differ in a detail not shown here. Identical values can stand only once. Toxic doses and inconclusive results are not listed. Rule as the data show it: active = T/C of 150% or more; inactive = T/C below 125%.

Test system: L1210 leukemia ip in BDF1 mice, survival T/C
Test: NCI In Vivo Anticancer Drug Screen. Data for tumor model L1210 Leukemia (intraperitoneal) in B6D2F1 (BDF1) mice
Settings: endpoint: mean survival time, higher = longer survival
Summary of the method: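 Survival endpoint. Drug-treated group vs vehicle group, expressed as T divided by C. Tumor passaged by transplantation.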

[1] = dose: 100.0 mg/kg/injection, schedule: Q04DX003 (ip), vehicle: Klucel (hydroxypropylcellulose) (HPC)
[2] = dose: 200.0 mg/kg/injection, schedule: Q04DX003 (ip), vehicle: Klucel (hydroxypropylcellulose) (HPC)
[3] = dose: 100.0 mg/kg/injection, schedule: Q01DX009 (ip), vehicle: saline with Tween-80
[4] = dose: 200.0 mg/kg/injection, schedule: Q01DX009 (ip), vehicle: saline with Tween-80
[5] = dose: 100.0 mg/kg/injection, schedule: Q01DX001 (ip), vehicle: Klucel (hydroxypropylcellulose) (HPC)
[6] = dose: 200.0 mg/kg/injection, schedule: Q01DX001 (ip), vehicle: Klucel (hydroxypropylcellulose) (HPC)
[7] = dose: 400.0 mg/kg/injection, schedule: Q01DX001 (ip), vehicle: Klucel (hydroxypropylcellulose) (HPC)
[8] = dose: 100.0 mg/kg/injection, schedule: Q01DX009 (ip), vehicle: Klucel (hydroxypropylcellulose) (HPC)
[9] = dose: 200.0 mg/kg/injection, schedule: Q01DX009 (ip), vehicle: Klucel (hydroxypropylcellulose) (HPC)
[10] = dose: 400.0 mg/kg/injection, schedule: Q01DX009 (ip), vehicle: Klucel (hydroxypropylcellulose) (HPC)
[11] = dose: 100.0 mg/kg/injection, schedule: Q04DX003 (ip), vehicle: saline sonified
[12] = dose: 100.0 mg/kg/injection, schedule: Q01DX001 (ip), vehicle: saline
[13] = dose: 100.0 mg/kg/injection, schedule: Q01DX009 (ip), vehicle: saline
[14] = dose: 200.0 mg/kg/injection, schedule: Q01DX001 (ip), vehicle: saline
[15] = dose: 400.0 mg/kg/injection, schedule: Q01DX001 (ip), vehicle: saline
[16] = dose: 400.0 mg/kg/injection, schedule: Q01DX009 (ip), vehicle: saline
[17] = dose: 100.0 mg/kg/injection, schedule: Q04DX002 (ip), vehicle: Klucel (hydroxypropylcellulose) (HPC)
[18] = dose: 200.0 mg/kg/injection, schedule: Q04DX002 (ip), vehicle: Klucel (hydroxypropylcellulose) (HPC)
[19] = dose: 400.0 mg/kg/injection, schedule: Q04DX002 (ip), vehicle: Klucel (hydroxypropylcellulose) (HPC)

Measured: T/C

CN(C)CCc1ccc(Nc2ccnc3cc(Cl)ccc23)cc1
inactive: dose: 75.0 mg/kg/injection, schedule: Q01DX001 (ip), vehicle: saline 101 % of control | dose: 150.0 mg/kg/injection, schedule: Q01DX001 (ip), vehicle: saline 98 % of control | dose: 300.0 mg/kg/injection, schedule: Q01DX001 (ip), vehicle: saline 95 % of control

O=NN(CC(=O)O)C(c1ccccc1)(c1ccccc1)c1ccccc1Cl
inactive: [1] 95 % of control | [2] 93 % of control

CC(C)(C)Sc1ccncc1
inactive: [3] 98 % of control | [4] 88 % of control

Cc1ccc(N2C(=O)CNC2=O)cc1
inactive: [5] 101 % of control | [6] 101 % of control | [7] 96 % of control

Nc1nccnc1Cl
inactive: dose: 75.0 mg/kg/injection, schedule: Q01DX001 (ip), vehicle: acetone 104 % of control | dose: 150.0 mg/kg/injection, schedule: Q01DX001 (ip), vehicle: acetone 104 % of control | dose: 300.0 mg/kg/injection, schedule: Q01DX001 (ip), vehicle: acetone 96 % of control

Cc1ccc(N2C(=O)CC(NC3CCCCC3)C2=O)cc1 (stereo not drawn)
inactive: [8] 97 % of control | [9] 100 % of control | [10] 97 % of control

CN=C1c2ccccc2C2(c3ccccc3)C1N2C (stereo not drawn)
inactive: [3] 95 % of control | [11] 121 % of control | [4] 94 % of control | dose: 200.0 mg/kg/injection, schedule: Q04DX003 (ip), vehicle: saline sonified 108 % of control | dose: 400.0 mg/kg/injection, schedule: Q04DX003 (ip), vehicle: saline sonified 101 % of control

Cc1nc(N(C)C)c2cnn(-c3ccccc3)c2n1
inactive: dose: 50.0 mg/kg/injection, schedule: Q01DX009 (ip), vehicle: saline with Tween-80 106 % of control | dose: 100.0 mg/kg/injection, schedule: Q01DX001 (ip), vehicle: acetone 101 % of control | [3] 87 % of control | dose: 200.0 mg/kg/injection, schedule: Q01DX001 (ip), vehicle: acetone 97 % of control

O=C(CCCC(=O)N/N=C/c1cc(Br)ccc1O)N/N=C\c1cc(Br)ccc1O
inactive: dose: 50.0 mg/kg/injection, schedule: Q01DX001 (ip), vehicle: saline 93 % of control | [12] 98 % of control | [13] 89 % of control | [14] 98 % of control | [15] 96 % of control | [16] 92 % of control

O=C(Nc1ccc(Nc2ccccc2)cc1)Nc1cccc2ccccc12
inactive: [5] 97 % of control | [8] 100 % of control | [13] 100 % of control | [17] 98 % of control and 105 % of control | [1] 97 % of control | [6] 92 % of control | [9] 90 % of control | dose: 200.0 mg/kg/injection, schedule: Q01DX009 (ip), vehicle: saline 100 % of control | [18] 93 % of control and 94 % of control | [2] 92 % of control | [7] 95 % of control | [10] 100 % of control | [16] 88 % of control | [19] 98 % of control and 102 % of control

O=S(=O)(Nc1ccccc1)c1ccc([As](=O)(O)O)cc1
inactive: [12] 103 % of control

COC(=O)C12CCC1(Cl)CC2 (stereo not drawn)
inactive: [12] 94 % of control | [14] 95 % of control | [15] 100 % of control

COC(=O)c1ccc(-c2c3ccc(=O)cc-3oc3cc(O)ccc23)c(C(=O)OC)c1
inactive: dose: 50.0 mg/kg/injection, schedule: Q04DX003 (ip), vehicle: gum acacia 102 % of control | dose: 100.0 mg/kg/injection, schedule: Q04DX003 (ip), vehicle: gum acacia 98 % of control | dose: 200.0 mg/kg/injection, schedule: Q04DX003 (ip), vehicle: gum acacia 102 % of control | dose: 400.0 mg/kg/injection, schedule: Q04DX003 (ip), vehicle: gum acacia 95 % of control

c1n[nH]c2c1CCCC2
inactive: dose: 100.0 mg/kg/injection, schedule: Q01DX001 (ip), vehicle: saline with Tween-80 89 % of control | [3] 98 % of control | dose: 100.0 mg/kg/injection, schedule: Q04DX002 (ip), vehicle: saline with Tween-80 97 % of control and 91 % of control | dose: 100.0 mg/kg/injection, schedule: Q04DX003 (ip), vehicle: saline with Tween-80 96 % of control and 104 % of control | dose: 200.0 mg/kg/injection, schedule: Q01DX001 (ip), vehicle: saline with Tween-80 86 % of control | [4] 98 % of control | dose: 200.0 mg/kg/injection, schedule: Q04DX002 (ip), vehicle: saline with Tween-80 94 % of control and 92 % of control | dose: 200.0 mg/kg/injection, schedule: Q04DX003 (ip), vehicle: saline with Tween-80 98 % of control and 108 % of control | dose: 400.0 mg/kg/injection, schedule: Q04DX002 (ip), vehicle: saline with Tween-80 94 % of control | dose: 400.0 mg/kg/injection, schedule: Q04DX003 (ip), vehicle: saline with Tween-80 100 % of control and 92 % of control

CC(=O)C(Sc1ccccc1[N+](=O)[O-])C(C)=O.[Cr]
inactive: dose: 50.0 mg/kg/injection, schedule: Q01DX001 (ip), vehicle: other 94 % of control | dose: 100.0 mg/kg/injection, schedule: Q01DX001 (ip), vehicle: other 88 % of control | dose: 400.0 mg/kg/injection, schedule: Q01DX001 (ip), vehicle: other 88 % of control

Cc1cccc(Cl)c1NC(=O)COc1ccc(Cl)cc1
inactive: [8] 102 % of control | [9] 89 % of control | [10] 93 % of control

O=C(O)C(O)C(O)C(=O)O.O=C(O)C(O)C(O)C(=O)O.[O]=[V].[O]=[V] (stereo not drawn)
inactive: dose: 6.25 mg/kg/injection, schedule: Q01DX009 (ip), vehicle: saline 101 % of control and 110 % of control | dose: 6.25 mg/kg/injection, schedule: Q04DX003 (ip), vehicle: saline 92 % of control and 106 % of control | dose: 12.5 mg/kg/injection, schedule: Q01DX009 (ip), vehicle: saline 101 % of control and 96 % of control | dose: 12.5 mg/kg/injection, schedule: Q04DX003 (ip), vehicle: saline 92 % of control and 96 % of control | dose: 25.0 mg/kg/injection, schedule: Q01DX009 (ip), vehicle: saline 98 % of control and 94 % of control | dose: 25.0 mg/kg/injection, schedule: Q04DX003 (ip), vehicle: saline 96 % of control and 97 % of control and 109 % of control | dose: 50.0 mg/kg/injection, schedule: Q04DX003 (ip), vehicle: saline 104 % of control | [11] 91 % of control

Oc1ccccc1CNc1nn[nH]n1
inactive: [5] 101 % of control | [6] 108 % of control | [7] 103 % of control

COC1CC2C(C[CH]1[Hg][Cl])C2(Cl)Cl (stereo not drawn)
inactive: dose: 3.13 mg/kg/injection, schedule: Q01DX009 (ip), vehicle: saline with Tween-80 103 % of control | dose: 6.25 mg/kg/injection, schedule: Q01DX009 (ip), vehicle: saline with Tween-80 94 % of control | dose: 6.25 mg/kg/injection, schedule: Q04DX003 (ip), vehicle: saline with Tween-80 105 % of control | dose: 12.5 mg/kg/injection, schedule: Q01DX009 (ip), vehicle: saline with Tween-80 96 % of control | dose: 12.5 mg/kg/injection, schedule: Q04DX003 (ip), vehicle: saline with Tween-80 96 % of control

CCN(CC)Cc1c(C)[nH]c2c(OC)cccc2c1=O
inactive: dose: 25.0 mg/kg/injection, schedule: Q04DX003 (ip), vehicle: water 103 % of control | dose: 50.0 mg/kg/injection, schedule: Q04DX003 (ip), vehicle: water 97 % of control | dose: 100.0 mg/kg/injection, schedule: Q01DX009 (ip), vehicle: water 101 % of control | dose: 100.0 mg/kg/injection, schedule: Q04DX003 (ip), vehicle: water 100 % of control and 102 % of control

O=C(Nc1ccccc1F)C(F)(F)F
inactive: [1] 103 % of control | [2] 105 % of control | dose: 400.0 mg/kg/injection, schedule: Q04DX003 (ip), vehicle: Klucel (hydroxypropylcellulose) (HPC) 97 % of control

C[N+](C)(C)/N=C/c1ccccc1
inactive: dose: 12.5 mg/kg/injection, schedule: Q01DX009 (ip), vehicle: Klucel (hydroxypropylcellulose) (HPC) 97 % of control | dose: 25.0 mg/kg/injection, schedule: Q01DX009 (ip), vehicle: Klucel (hydroxypropylcellulose) (HPC) 103 % of control | dose: 50.0 mg/kg/injection, schedule: Q01DX009 (ip), vehicle: Klucel (hydroxypropylcellulose) (HPC) 93 % of control and 96 % of control

CC1=C/C(=N\NC(N)=O)CCC1
inactive: [17] 97 % of control | [18] 86 % of control | [19] 105 % of control
